The values that follow come from article PMC7307922 (Journal of Medicinal Chemistry, 2020).

The nature of one data set: in vivo. Particulars: male, BALB/c, mouse. On the procedure: The study was performed by Bienta (www.bienta.net). Study design, animal selection, handling, and treatment were all in accordance with the Enamine PK study protocols and Institutional Animal Care and Use Guidelines. Animal treatment and plasma samples preparation were conducted by the Animal Laboratory personnel at Enamine/Bienta. […] The animals were randomly assigned to the treatment groups before the pharmacokinetic study; all animals were fasted for 4 h before dosing. […] Each of the time point treatment group included four animals. There was also a control group of two animals. […] Dosing volumes of compounds or vehicle was 5 mL/kg. Mice were injected iv with 2,2,2-tribromoethanol at the dose of 150 mg/kg prior to drawing the blood. Blood collection was performed from the orbital sinus in microtainers containing K2EDTA. Animals were sacrificed by cervical dislocation after the blood sample collection. All samples were immediately processed, flash-frozen, and stored at −70 °C until subsequent analysis. […] After mixing by pipetting and centrifuging for 4 min at 6000 rpm, 0.5–1 μL of each supernatant was analyzed by HPLC-MS/MS on an API 3000 PE instrument.

The next data set has as its target T1, human FFA2 (Homo sapiens, UniProt O15552).
T1 construct: expressed in transfected cells; host or cells: Flp-In T-REx 293, doxycycline-induced
T1 sequence (O15552 1-330): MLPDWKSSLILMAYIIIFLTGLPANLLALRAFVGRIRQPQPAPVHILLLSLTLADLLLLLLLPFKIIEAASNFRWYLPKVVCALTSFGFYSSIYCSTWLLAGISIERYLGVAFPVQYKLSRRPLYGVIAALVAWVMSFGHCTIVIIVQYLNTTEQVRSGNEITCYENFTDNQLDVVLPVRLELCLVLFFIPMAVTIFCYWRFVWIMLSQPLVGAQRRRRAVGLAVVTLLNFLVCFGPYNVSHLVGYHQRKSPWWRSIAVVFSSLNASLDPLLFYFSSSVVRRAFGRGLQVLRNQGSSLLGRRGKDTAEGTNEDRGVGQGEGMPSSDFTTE
The data set can be described thus: FFA2 counterscreen, cAMP assay. It is filed as cell-based. Particulars: 10 μM. How it is done: Counter screening against FFA1, FFA2 , FF A4 and GPR84 […]
Counter screening for FFA2 was carried out using a cAMP assay. Flp-In T-Re x 293 cells generated to stably express human FFA2 tagged at is C-terminal with eYFP were first treated with doxycycline (100 ng/mL) overnight to induce receptor expressi on. Cells were then detached and used directly in an HT R-FRET cAMP assay (CisBio) according to the manufacturer’s protocol and measured using a Pherastar FS plate reader (BMG Labtech, Aylesbury, UK). For these experiments, 2000 cells were used per well in a low volume 384-well plate and compounds were tested against their ability to inhibit the cAMP response to 1 µM forskolin for 30 min. […]
Background: A counterscreen serves to expose hits that act by an unwanted route or on another target.

The nature of data set [1]: Kinetic aqueous solubility in PBS pH 7.4. It is filed as physicochemical. Particulars: for solubility: phosphate buffered saline, pH 7.4, read-out: Aq. solub. How it is done:
Solubility and log D7.4 measurements were performed in accordance to the previously published procedures.[35]

The nature of data set [2]: Stability toward mouse liver microsomes. Particulars: remaining after 40 min incubation with MLMs. How it is done:
The study was performed by Bienta (www.bienta.net). Mouse hepatic microsomes were isolated from pooled and perfused livers of male BALB/c mice (n = 50). Isolation was performed according to the standard protocol.[36]
Microsomal incubations were carried out in 96-well plates in 5 aliquots of 40 μL each (one for each time point). Liver microsomal incubation medium comprised PBS (100 mM, pH 7.4), MgCl2 (3.3 mM), NADPH (3 mM), glucose-6-phosphate (5.3 mM), and glucose-6-phosphate dehydrogenase (0.67 units/mL) with 0.42 mg of liver microsomal protein per ml. In the control reactions, the NADPH-cofactor system was substituted with PBS. […] Each reaction was performed in duplicates. Five time points over 40 min were analyzed. The reactions were stopped by adding 12 volumes of 90% acetonitrile–water to incubation aliquots, followed by protein sedimentation by centrifuging at 5500 rpm for 3 min. […]. Supernatants were analyzed using HPLC-MS/MS on an API 3000 PE instrument.

The target of another data set is T2, mFFA3 (Mus musculus, UniProt Q3UFD7).
T2 sequence (Q3UFD7 1-319): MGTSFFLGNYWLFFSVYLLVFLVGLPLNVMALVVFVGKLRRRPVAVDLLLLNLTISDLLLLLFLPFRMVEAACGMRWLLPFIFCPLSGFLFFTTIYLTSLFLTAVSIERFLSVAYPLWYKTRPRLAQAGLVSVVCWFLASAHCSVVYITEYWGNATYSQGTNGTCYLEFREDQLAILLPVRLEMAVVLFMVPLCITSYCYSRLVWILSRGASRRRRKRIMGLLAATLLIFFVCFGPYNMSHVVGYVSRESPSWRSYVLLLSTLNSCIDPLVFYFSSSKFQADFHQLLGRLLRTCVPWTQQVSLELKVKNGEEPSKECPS
Put plainly: cAMP assay, mFFA3. It is filed as cell-based. Also noted: expressed in transfected cells; host or cells: HEK293 Flp-In T-REx, doxycycline-induced. To be noted: for loss of potency from human to rodent species: hFFA3 vs rFFA3 and mFFA3, cAMP. How it is done: With several compounds with improved properties in hand, we wished to investigate the suitability of the compounds as tools for in vivo studies in rodents. Because of the moderate potency and low solubility associated with this series, it has been presumed that they are poorly suited as in vivo tools.
HEK293 Flp-In T-Rex cells stably transfected with FFA3-eYFP receptors were incubated overnight with doxycycline to induce expression, then harvested, and cryopreserved. On the day of each experiment, cells were thawed and resuspended in stimulation buffer. Assays were carried out using a 384-well plate format with 3000 cells/well using the CisBio cAMP GS dynamic kit as per manufacturer’s protocol. Compounds were tested for the ability to inhibit 0.3 μM forskolin-induced cAMP production after co-incubation for 1 h. Reactions were measured using a PHERAstar FS plate reader (BMGLabtech, Aylesbury, UK).
On the technique in general: Changes in cAMP serve as a functional read-out for many G protein-coupled receptors.

Molecules are shown by their SMILES. Values after ≈ are worked out from the molar mass of the structure shown. Values joined by “and” are separate entries in the source; they are usually repeats but may differ in a detail not shown here. Equal entries are not always repeated.

Take `CC1=C(C(=O)Nc2ccccc2C)C(c2ccco2)C2=C(CCCC2=O)N1` (stereo not drawn) [Compound 1, 4-(Furan-2-yl)-2-methyl-5-oxo-N-(o-tolyl)-1,4,5,6,7,8-hexahydroquinoline-3-carboxamide, reference compound]: in “in vivo” (iv, 5 mg/kg), the Vd at 24 h was 0.759 L/kg, the clearance at 24 h is 8.45 mL/min/kg and the half-life at 24 h was determined as 62.2 min. Further, in “in vivo” (po, 10 mg/kg), the AUC(0-inf) at 24 h is 14400 ng·h/mL, the peak concentration (Cmax) at 24 h turned out to be 7470 ng/mL, the Tmax at 24 h was 15 min and the bioavailability at 24 h came to 73%. In addition, the half-life at 24 h in “in vivo” (po, 10 mg/kg) came out at 89.7 min. In addition, at human FFA2, the “activity at FFA2” value is on record as “No significant activity”. Moreover, in data set [1], the solubility stood at 190 µM (≈ 68.9 µg/mL). Also, the “MLM (%) remaining” value in data set [2] turned out to be 52%. At mFFA3, the “loss of potency from human to rodent species” value is given as 3–10 fold and the “cAMP pEC50 (mFFA3)” value was found to be 5.42 ± 0.04.

For the molecule `CC1=C(C(=O)Nc2cc(Cl)ccc2Cl)C(c2ccco2)C2=C(CCCC2=O)N1` (stereo not drawn) [Compound 16, reference compound], in “in vivo” (iv, 5 mg/kg), the Vd at 24 h was determined as 0.629 L/kg, the clearance at 24 h was 19.6 mL/min/kg, the half-life was 20 min and the half-life at 24 h turned out to be 22.3 min. Besides, in “in vivo” (po, 10 mg/kg), the AUC(0-inf) at 24 h is 7050 ng·h/mL, the peak level (Cmax at 24 h) was 5740 ng/mL, the time of peak concentration (Tmax) at 24 h was 30 min and the bioavailability at 24 h was 88%. The half-life at 24 h in “in vivo” (po, 10 mg/kg) came out at 60.8 min. For the same molecule, the “activity at FFA2” value on human FFA2 was “No significant activity”. Also, the solubility in data set [1] turned out to be 5 µM (≈ 2.09 µg/mL). Moreover, the “MLM (%) remaining” value in data set [2] was 1−2% and 1%. Also, at mFFA3, the “loss of potency from human to rodent species” value is on record as 3–10 fold and the “cAMP pEC50 (mFFA3)” value is on record as 5.88 ± 0.05.

In “in vivo” (iv, 5 mg/kg), `CCCC1C(C(=O)Nc2cc(Cl)ccc2Cl)=C(C)NC2=C1C(=O)CCC2` (stereo not drawn) [Compound 57, N-(2,5-Dichlorophenyl)-2-methyl-5-oxo-4-propyl-1,4,5,6,7,8-hexahydroquinoline-3-carboxamide] gave a Vd at 24 h of 1.15 L/kg, a clearance at 24 h of 70.3 mL/min/kg and a half-life at 24 h of 11.4 min. In addition, in “in vivo” (po, 10 mg/kg), the area under the curve AUC(0-inf) at 24 h is 563 ng·h/mL, the concentration peaked (Cmax at 24 h) at 561 ng/mL, the time to peak (Tmax) at 24 h was 30 min and the bioavailability at 24 h came to 36%. Besides, the half-life at 24 h in “in vivo” (po, 10 mg/kg) came out at 63.5 min. The “activity at FFA2” value at human FFA2 is reported as “No significant activity”. Moreover, in data set [1] (kinetic solubility), the “increase of solubility relative to 16” value is 6 fold. For the same molecule, the solubility in data set [1] was found to be 33 µM (≈ 13 µg/mL). Further, the “MLM (%) remaining” value in data set [2] was 1−2% and 1%.

In the data set “in vivo” (iv, 5 mg/kg), `CC1=C(C(=O)Nc2cc(Cl)ccc2Cl)C(C2CCCC2)C2=C(CCCC2=O)N1` (stereo not drawn) [Compound 63, 4-Cyclopentyl-N-(2,5-dichlorophenyl)-2-methyl-5-oxo-1,4,5,6,7,8-hexahydroquinoline-3-carboxamide] returned a Vd at 24 h of 1.11 L/kg, a clearance at 24 h of 20.3 mL/min/kg and a half-life at 24 h of 37.8 min. In addition, in “in vivo” (po, 10 mg/kg), the AUC(0-inf) at 24 h was 5420 ng·h/mL, the peak concentration (Cmax) at 24 h worked out at 3800 ng/mL, the Tmax at 24 h is 15 min and the bioavailability at 24 h stood at 66%. In the data set “in vivo” (po, 10 mg/kg), the half-life at 24 h amounted to 51.8 min. In addition, the “activity at FFA2” value on human FFA2 was “No significant activity”. For the same molecule, the solubility in data set [1] stood at 9 µM (≈ 3.77 µg/mL). Also, the “MLM (%) remaining” value in data set [2] is 41%. Further, at mFFA3, the “cAMP pEC50 (mFFA3)” value is listed as 5.96 ± 0.04.

In general, Vd refers to a proportionality between amount in the body and measured concentration, not a real space. A higher Vd goes with extensive tissue distribution. By clearance is commonly meant a measure of how efficiently the substance is removed, as volume per time. A higher clearance goes with efficient removal. A word on the half-life: it is how long it takes for the measured level to halve. Higher therefore signals slow loss. Usually AUC(0-inf) stands for the area under the concentration-time curve extrapolated to infinity. A word on the Cmax: it is the maximum level reached in the sampled fluid or tissue. Broadly, the Tmax is the time from dosing to the highest level. A word on the bioavailability: it is the share of a dose that reaches the circulation, judged against a reference dose that is usually intravenous.
